Publication PMC3906059, “Activation and Inhibition of TMEM16A Calcium-Activated Chloride Channels” (PLoS ONE, 2014)
Where two headings read alike, the source gives them in different places. Each block holds one molecule with its values, some of them ahead of it.

Columns and labels:
TMEM16A (ANO1) [1] = molecular target: T1, TMEM16A (ANO1) (Mus musculus, UniProt Q8BHY3); assay: Activation of ANO1 current by divalent cations, excised inside-out patch with fast solution exchange; type: cell-based
T1 construct: We subcloned the coding region of the cDNA into pEGFP-N3 vector; expressed in transfected cells; host or cells: HEK293 cells
T1 sequence (Q8BHY3 1-956 isoform Q8BHY3-2): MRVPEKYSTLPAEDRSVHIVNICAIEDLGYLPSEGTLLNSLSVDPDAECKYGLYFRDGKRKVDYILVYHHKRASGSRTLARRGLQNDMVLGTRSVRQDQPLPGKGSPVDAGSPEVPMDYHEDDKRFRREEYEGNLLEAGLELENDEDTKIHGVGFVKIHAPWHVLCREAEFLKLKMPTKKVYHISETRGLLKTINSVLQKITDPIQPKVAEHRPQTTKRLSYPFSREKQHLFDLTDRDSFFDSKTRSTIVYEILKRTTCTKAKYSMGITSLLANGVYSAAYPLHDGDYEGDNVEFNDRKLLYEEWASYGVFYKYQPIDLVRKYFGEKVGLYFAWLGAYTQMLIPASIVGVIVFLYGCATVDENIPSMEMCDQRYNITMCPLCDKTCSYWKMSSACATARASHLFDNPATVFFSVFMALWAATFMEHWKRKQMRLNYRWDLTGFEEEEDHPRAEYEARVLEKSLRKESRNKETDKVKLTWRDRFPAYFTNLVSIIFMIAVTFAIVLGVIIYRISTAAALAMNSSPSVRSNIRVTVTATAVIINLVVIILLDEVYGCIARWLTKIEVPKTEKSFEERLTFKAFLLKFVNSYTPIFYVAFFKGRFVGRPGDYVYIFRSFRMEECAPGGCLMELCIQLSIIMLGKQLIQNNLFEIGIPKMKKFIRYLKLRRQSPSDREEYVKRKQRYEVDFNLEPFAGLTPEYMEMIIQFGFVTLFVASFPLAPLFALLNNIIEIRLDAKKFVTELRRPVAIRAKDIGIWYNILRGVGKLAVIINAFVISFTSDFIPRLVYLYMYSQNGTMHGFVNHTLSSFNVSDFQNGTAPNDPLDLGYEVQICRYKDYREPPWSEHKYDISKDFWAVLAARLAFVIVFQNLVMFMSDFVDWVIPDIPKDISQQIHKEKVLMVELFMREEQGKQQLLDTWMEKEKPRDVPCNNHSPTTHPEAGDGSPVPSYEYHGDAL
Description: (§1) The mouse TMEM16A cDNA (NCBI reference sequence: NM_001242349.1) encoding ANO1 CaCC was a generous gift from Dr. Lily Jan. We subcloned the coding region of the cDNA into pEGFP-N3 vector (Clontech Laboratories, Inc.), resulting in a construct in which an enhanced green fluorescent protein (eGFP) was attached to the C-terminus of the ANO1 protein. The sequence was confirmed by commercially-available DNA sequencing service. This eGFP-attached ANO1 cDNA construct was used for channel expression throughout the study. The cDNA was transfected into human embryonic kidney (HEK) 293 cells using lipofectamine transfection methods, [42], [43]. A fluorescent light source and a GFP filter set (Chroma Technology Co.) in the DM IRB inverted microscope (Leica Microsystems) were used to identify transfected cells expressing channel proteins. Electrophysiological experiments were performed ∼24 to 72 hours after transfection.
(§2) All chemicals were reagent grade. Regular salts (such as NaCl, NaOH, CaCl2, SrCl2, BaCl2, MgCl2 or sodium salts of various anions) were purchased from Fisher Chemicals (Fair Lawn, NJ), J. T. Baker (Phillipsburg, NJ) or Sigma Chemicals Co. (St. Louis, MO). EGTA, HEPES, and NFA were from Sigma Chemicals Co. Excised inside-out patch-clamp recordings were performed throughout the study. The extracellular (pipette) solution in all experiments contained: 140 mM NaCl, 10 mM HEPES, 0.1 mM EGTA, pH = 7.4. The regular intracellular solution contained 10 mM HEPES and 140 mM sodium salt of Cl^− or other anions. Various concentrations of divalent cations were made by adding certain total concentrations of divalent cations (Cl^− salts) into the solution containing a defined concentration of EGTA. We defined the pipette solution as the “zero-Ca^2+” solution. A solution containing a saturating [Ca^2+] was made by adding 0.12 mM total [Ca^2+] into the aforementioned zero-Ca^2+ solution, resulting in a solution containing ∼20 µM free [Ca^2+]. For making non-saturating [Ca^2+] solutions, the solutions included 1 mM EGTA. To make solutions containing Sr^2+ and Ba^2+, only 0.1 mM EGTA was used. The pH of all solutions was adjusted to 7.4.
Because of weak Mg^2+-EGTA binding, we referred the total [Mg^2+] as the free [Mg^2+]. The free [Ca^2+], [Sr^2+], and [Ba^2+] were calculated using the MaxChelator program (Ver1.2) kindly provided by Chris Patton from the Stanford University. This program was developed based on the binding constants available in the National Institute of Standard and Technology (NIST) between EGTA and these three divalent cations. Table S1, Table S2, and Table S3 list respectively the calculated free [Ca^2+], [Sr^2+], and [Ba^2+] used in this study. All added divalent cations were Cl^− salts. […] For example, in a solution containing 5 mM, 10 mM or 30 mM MgCl2, only 130 mM, 120 mM or 80 mM of NaCl, respectively, were added to the solution.
The patch-clamp recording pipettes were fabricated from borosilicate glass capillaries (World Precision Instruments) using PP830 electrode puller (Narishige International). When filled with the pipette solution, the electrode resistance was ∼1.5–3 MΩ. The experiments were carried out at room temperature (20–23°C) using the Axopatch 200B amplifier controlled by the Digidata I/O converter and the pClamp9 software (Axon Instruments/Molecular Devices).
Solution exchange was achieved using the SF-77 solution exchanger (Warner Instruments). After the excised inside-out patch mode was established, the tip of the patch pipette was positioned at the exit of the solution-delivery pipes of the SF-77 solution exchanger. The switch of solution pipes was controlled by a digital signal delivered from the Digidata 1320 digitizing board. […]

TMEM16A = conditions: cited from earlier work
TMEM16A (ANO1) [2] = molecular target: T1, TMEM16A (ANO1); assay: NFA inhibition of ANO1 current, intracellular application to inside-out patch; type: cell-based
Description: as §1, §2
The inhibition of ANO1 by intracellular NFA was achieved by directly applying NFA to the intracellular side of the membrane patch using fast-solution exchange. Except where indicated, the ANO1 current was induced by saturating [Ca^2+] followed by the application of various [NFA] in the solution containing the same [Ca^2+]. The steady-state current (I) at the end of NFA application was divided by the current in the absence of NFA (I0) before and after the drug application to obtain the percentage of current remained in the presence of NFA.
For dose-response inhibition by NFA, the current (I) measured at the end of the NFA application was normalized to the current amplitude in the absence of NFA (I0). The ratio I/I0 was then plotted against [NFA], and the concentration-dependent inhibition curve was fitted to a Langmuir function (eq. 2), I/I0 = 1/(1+ [NFA]/K1/2), where K1/2 is the half-inhibition [NFA].
For comparing two treatments that might differentially affect the apparent affinity of the NFA inhibition (for example, Fig. 8 C & D), the summation of the residual error (namely, the residual sum of squares of the error) from the curve fitting of each treatment was compared to the residual error from the curve fitting of the pooled data. If the former was statistically smaller than the latter using F test, the two regression curves would be considered different. The statistically significant level (α) was set at 0.05.

TMEM16A (ANO1) [3] = molecular target: T1, TMEM16A (ANO1); assay: as above; type: cell-based; remark: listed apart in the source
CaCC of Xenopus oocytes = system: CaCC of Xenopus oocytes; design: method as in PMID 11279188; conditions: cited from earlier work

difference of K1/2,Ca between +40 mV and −40 mV (TMEM16A (ANO1) [1]): 100 nM | fraction of saturated current activated (TMEM16A (ANO1) [1]; 666 nM [Ca^2+], ±40 mV, in the presence or absence of 20 µM NFA): ~90% | EC50 (TMEM16A (ANO1) [1]; +40 mV, fit to Hill equation (eq. 1), normalized to Is induced by 20 µM free Ca^2+, read-out: half-activation [Ca^2+] (K1/2,Ca)): 0.466 µM | Hill coefficient (n) of dose-response activation curve (TMEM16A (ANO1) [1]; values covering +40 and −40 mV): ~4 | EC50 (TMEM16A (ANO1) [1]; values covering +40 and −40 mV, read-out: K1/2 of ANO1 activation): ~0.5 µM
Compound: [Ca+2] [Ca^2+]
maximal ANO1 current activated by saturating divalent cation compared with Is induced by saturating [Ca^2+] (TMEM16A (ANO1) [1]; Is induced by 20 µM Ca^2+, ±40 mV): activated the channel to the same maximal current level | EC50 (TMEM16A; +80 mV, read-out: K1/2,Ca): 0.063 µM | EC50 (TMEM16A; −60 mV, lower end of literature range, read-out: half-effective concentration of Ca^2+ (K1/2,Ca)): < 0.1 µM | EC50 (TMEM16A; −60 mV, upper end of literature range, read-out: half-effective concentration of Ca^2+ (K1/2,Ca)): > 2 µM

effect of NFA on sensitivity of ANO1 to Ca^2+ activation (TMEM16A (ANO1) [2]; 20 µM NFA, current induced by 666 nM Ca^2+ at ±40 mV): not reduced | IC50 (TMEM16A (ANO1) [2]; 140 mM intracellular NaBr, pipette 140 mM Cl^−, read-out: K1/2 of NFA inhibition): 39.2 ± 1.1 µM | IC50 (TMEM16A (ANO1) [2]; 140 mM intracellular NaCl, pipette 140 mM Cl^−, read-out: K1/2 of NFA inhibition): 17.9 ± 1.1 µM | IC50 (TMEM16A (ANO1) [2]; 140 mM intracellular NaI, pipette 140 mM Cl^−, read-out: K1/2 of NFA inhibition): 85.5 ± 3.6 µM | IC50 (TMEM16A (ANO1) [2]; 140 mM intracellular NaNO3, pipette 140 mM Cl^−, read-out: K1/2 of NFA inhibition): 54.8 ± 3.4 µM | IC50 (TMEM16A (ANO1) [2]; 140 mM intracellular NaSCN, pipette 140 mM Cl^−, read-out: K1/2 of NFA inhibition): 189 ± 7.4 µM | voltage dependence of K1/2 of NFA inhibition (TMEM16A (ANO1) [2]; between −40 mV and +40 mV): not voltage dependent | IC50 (TMEM16A (ANO1) [2]; current activated by 404 µM [Ba^2+], Vm = −20 mV, read-out: K1/2 of NFA inhibition): 22.6 µM | IC50 (TMEM16A (ANO1) [2]; current induced by 20 µM Ca^2+, −40, −20, +20, +40 mV, read-out: half-blocking concentration (K1/2) of NFA): 18 to 20 µM | IC50 (TMEM16A (ANO1) [2]; symmetrical 140 mM NaCl, −40 mV, read-out: K1/2 of NFA inhibition): 18.4 µM | IC50 (TMEM16A (ANO1) [3]; symmetrical 4 mM NaCl (136 mM Na-Glutamate added), −40 mV, read-out: K1/2 of NFA inhibition): 7.9 µM | increase of apparent affinity of NFA inhibition in 4 mM [Cl^−] compared with 140 mM [Cl^−] (TMEM16A (ANO1) [3]; symmetrical solutions): more than 2 fold
Compound: O=C(O)c1cccnc1Nc1cccc(C(F)(F)F)c1 [NFA, niflumic acid]
sideness of the block (CaCC of Xenopus oocytes): from intracellular and extracellular sides with similar affinities
